Assay results taken from patent US8741906B2 (priority 2011, dated 2014).
Like-named read-outs stand apart in the source and are kept apart here.

Assays:
human CB1 receptors = biological target: T1, human CB1 receptors (Homo sapiens, UniProt P21554); test: functional cAMP assay, human CB1; type: cell-based
T1 construct: expressed in transfected cells; host or cells: CHO cells
Experimental: (§1) CHO cells expressing human CB1 or CB2 receptors are seeded 17-24 hours prior to the experiment 50.000 cells per well in a black 96 well plate with flat clear bottom (Corning Costar #3904) in DMEM (Invitrogen No. 31331), 1×HT supplement, with 10% fetal calf serum and incubated at 5% CO2 and 37° C. in a humidified incubator. The growth medium was exchanged with Krebs Ringer Bicarbonate buffer with 1 mM IBMX and incubated at 30° C. for 30 min. Compounds were added to a final assay volume of 100 μl and incubated for 30 min at 30° C. Using the cAMP-Nano-TRF detection kit the assay (Roche Diagnostics) was stopped by the addition of 50 μl lysis reagent (Tris, NaCl, 1.5% Triton X100, 2.5% NP40, 10% NaN3) and 50 μl detection solutions (20 μM mAb Alexa700-cAMP 1:1, and 48 μM Ruthenium-2-AHA-cAMP) and shaken for 2 h at room temperature. The time-resolved energy transfer is measured by a TRF reader (Evotec Technologies GmbH), equipped with a ND:YAG laser as excitation source. The plate is measured twice with the excitation at 355 nm and at the emission with a delay of 100 ns and a gate of 100 ns, total exposure time 10 s at 730 (bandwidth 30 nm) or 645 nm (bandwidth 75 nm), respectively. The FRET signal is calculated as follows: FRET=T730-Alexa730-P(T645-B645) with P=Ru730-B730/Ru645-B645, where T730 is the test well measured at 730 nM, T645 is the test well measured at 645 nm, B730 and B645 are the buffer controls at 730 nm and 645 nm, respectively. cAMP content is determined from the function of a standard curve spanning from 10 μM to 0.13 nM cAMP.
(§2) EC50 values were determined using Activity Base analysis (ID Business Solution, Limited). The EC50 values for a wide range of cannabinoid agonists generated from this assay were in agreement with the values published in the scientific literature.

human CB2 receptors = biological target: T2, human CB2 receptors (Homo sapiens, UniProt P34972); test: functional cAMP assay, human CB2; type: cell-based
T2 construct: expressed in transfected cells; host or cells: CHO cells
T2 sequence (P34972 whole entry): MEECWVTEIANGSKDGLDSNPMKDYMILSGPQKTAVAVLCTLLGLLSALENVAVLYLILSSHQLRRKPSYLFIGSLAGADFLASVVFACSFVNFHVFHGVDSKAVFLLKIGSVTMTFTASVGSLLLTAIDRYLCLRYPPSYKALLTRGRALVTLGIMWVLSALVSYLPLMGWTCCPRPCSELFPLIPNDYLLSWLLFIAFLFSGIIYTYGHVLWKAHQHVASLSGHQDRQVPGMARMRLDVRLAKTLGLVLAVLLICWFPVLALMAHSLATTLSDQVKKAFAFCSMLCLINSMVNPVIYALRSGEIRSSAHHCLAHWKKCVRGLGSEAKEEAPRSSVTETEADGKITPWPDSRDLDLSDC
Experimental: as §1, §2

[1] = CHO cells expressing human CB1, cAMP, read-out: human CB1 EC50
[2] = CHO cells expressing human CB2, cAMP, read-out: human CB2 EC50

T1 sequence (P21554 whole entry): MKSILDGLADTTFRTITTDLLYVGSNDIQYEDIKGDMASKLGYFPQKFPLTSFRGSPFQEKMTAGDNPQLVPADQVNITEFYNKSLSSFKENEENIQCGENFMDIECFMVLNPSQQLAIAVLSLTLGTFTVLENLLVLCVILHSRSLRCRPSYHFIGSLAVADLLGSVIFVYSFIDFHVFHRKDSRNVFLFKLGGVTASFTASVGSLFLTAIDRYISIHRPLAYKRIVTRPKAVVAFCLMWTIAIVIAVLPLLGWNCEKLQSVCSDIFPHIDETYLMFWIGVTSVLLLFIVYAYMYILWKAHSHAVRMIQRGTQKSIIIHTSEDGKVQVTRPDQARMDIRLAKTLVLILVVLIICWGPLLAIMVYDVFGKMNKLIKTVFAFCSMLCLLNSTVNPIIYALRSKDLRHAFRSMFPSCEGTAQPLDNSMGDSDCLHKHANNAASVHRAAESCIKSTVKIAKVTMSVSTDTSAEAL

Compound	EC50 (human CB1 receptors; [1])	EC50 (human CB2 receptors; [2])	EC50 (human CB1 receptors)	EC50 (human CB2 receptors)
CC(C)(C)c1nc(N2CC[C@H](O)C2)c2nnn(Cc3ccccc3Cl)c2n1 [Example 26, (S)-1-[5-tert-Butyl-3-(2-chloro-benzyl)-3H-[1,2,3]triazolo[4,5-d]pyrimidin-7-yl]-pyrrolidin-3-ol]	866 nM	1.1 nM	–	–
CC(C)(C)c1nc(N2CC[C@@H](O)C2)c2nnn(Cc3ccccc3Cl)c2n1 [Example 27, (R)-1-[5-tert-Butyl-3-(2-chloro-benzyl)-3H-[1,2,3]triazolo[4,5-d]pyrimidin-7-yl]-pyrrolidin-3-ol]	> 10000 nM	5.1 nM	–	–
COC1CCN(c2nc(C(C)(C)C)nc3c2nnn3Cc2ccccc2Cl)C1 (stereo not shown) [Example 28, 5-tert-Butyl-3-(2-chloro-benzyl)-7-(3-methoxy-pyrrolidin-1-yl)-3H-[1,2,3]triazolo[4,5-d]pyrimidine]	> 10000 nM	11.2 nM	–	–
CC(C)(C)c1nc(N2CCCC2(C)C)c2nnn(Cc3ccccc3Cl)c2n1 [Example 29, 5-tert-Butyl-3-(2-chloro-benzyl)-7-(2,2-dimethyl-pyrrolidin-1-yl)-3H-[1,2,3]triazolo[4,5-d]pyrimidine]	1630 nM	12.5 nM	–	–
CC1CCCN1c1nc(C(C)(C)C)nc2c1nnn2Cc1ccccc1Cl (stereo not shown) [Example 30, 5-tert-Butyl-3-(2-chloro-benzyl)-7-(2-methyl-pyrrolidin-1-yl)-3H-[1,2,3]triazolo[4,5-d]pyrimidine]	> 10000 nM	26.9 nM	–	–
CC(C)(C)c1nc(N2CCC3(COC3)C2)c2nnn(Cc3ccccc3Cl)c2n1 [Example 31, 5-tert-Butyl-3-(2-chloro-benzyl)-7-(2-oxa-6-aza-spiro[3.4]oct-6-yl)-3H-[1,2,3]triazolo[4,5-d]pyrimidine]	1260 nM	9.8 nM	–	–
CC(C)(C)c1nc(N2CCC(O)CC2)c2nnn(Cc3ccccc3Cl)c2n1 [Example 32, 1-[5-tert-Butyl-3-(2-chloro-benzyl)-3H-[1,2,3]triazolo[4,5-d]pyrimidin-7-yl]-piperidin-4-ol]	> 10000 nM	20.7 nM	–	–
CC(C)(C)c1nc(N2CCC[C@H](O)C2)c2nnn(Cc3ccccc3Cl)c2n1 [Example 33, (S)-1-[5-tert-Butyl-3-(2-chloro-benzyl)-3H-[1,2,3]triazolo[4,5-d]pyrimidin-7-yl]-piperidin-3-ol]	764 nM	2.5 nM	–	–
CC(C)(C)c1nc(N2CCC[C@@H](O)C2)c2nnn(Cc3ccccc3Cl)c2n1 [Example 34, (R)-1-[5-tert-Butyl-3-(2-chloro-benzyl)-3H-[1,2,3]triazolo[4,5-d]pyrimidin-7-yl]-piperidin-3-ol]	2270 nM	27.5 nM	–	–
CC(C)(C)c1nc(N2CCC23COC3)c2nnn(Cc3ccccc3Cl)c2n1 [Example 35, 5-tert-Butyl-3-(2-chloro-benzyl)-7-(6-oxa-1-aza-spiro[3.3]hept-1-yl)-3H-[1,2,3]triazolo[4,5-d]pyrimidine]	> 10000 nM	3.6 nM	–	–
CC(C)(C)c1nc(N2CC[C@H](F)C2)c2nnn(Cc3ccccc3Cl)c2n1 [Example 36, 5-tert-Butyl-3-(2-chloro-benzyl)-7-((S)-3-fluoro-pyrrolidin-1-yl)-3H-[1,2,3]triazolo[4,5-d]pyrimidine]	432 nM	0.6 nM	–	–
CC(C)(C)c1nc(N2CCC[C@@H]2CO)c2nnn(Cc3ccccc3Cl)c2n1 [Example 37, {(R)-1-[5-tert-Butyl-3-(2-chloro-benzyl)-3H-[1,2,3]triazolo[4,5-d]pyrimidin-7-yl]-pyrrolidin-2-yl}-methanol]	492 nM	0.3 nM	–	–
CC(C)(C)c1nc(N2CCC[C@H]2CO)c2nnn(Cc3ccccc3Cl)c2n1 [Example 38, {(S)-1-[5-tert-Butyl-3-(2-chloro-benzyl)-3H-[1,2,3]triazolo[4,5-d]pyrimidin-7-yl]-pyrrolidin-2-yl}-methanol]	361 nM	18.2 nM	–	–
CC(C)(C)c1nc(N2CCCCO2)c2nnn(Cc3ccccc3Cl)c2n1 [Example 39, 5-tert-Butyl-3-(2-chloro-benzyl)-7-[1,2]oxazinan-2-yl-3H-[1,2,3]triazolo[4,5-d]pyrimidine]	1330 nM	7.9 nM	–	–
CC(C)(C)c1nc(N2CCCO2)c2nnn(Cc3ccccc3Cl)c2n1 [Example 40, 5-tert-Butyl-3-(2-chloro-benzyl)-7-isoxazolidin-2-yl-3H-[1,2,3]triazolo[4,5-d]pyrimidine]	> 10000 nM	11.6 nM	–	–
CC(C)(C)c1nc(N2CC2)c2nnn(Cc3ccccc3Cl)c2n1 [Example 41, 7-Aziridin-1-yl-5-tert-butyl-3-(2-chloro-benzyl)-3H-[1,2,3]triazolo[4,5-d]pyrimidine]	–	–	1220 nM	36.5 nM
CC(C)(C)c1nc(N2CC[C@@H](F)C2)c2nnn(Cc3ccccc3Cl)c2n1 [Example 42, 5-tert-Butyl-3-(2-chloro-benzyl)-7-((R)-3-fluoro-pyrrolidin-1-yl)-3H-[1,2,3]triazolo[4,5-d]pyrimidine]	991 nM	0.3 nM	–	–
CC(C)(C)c1nc(N2CC(F)(F)C(F)(F)C2)c2nnn(Cc3ccccc3Cl)c2n1 [Example 43, 5-tert-Butyl-3-(2-chloro-benzyl)-7-(3,3,4,4-tetrafluoro-pyrrolidin-1-yl)-3H-[1,2,3]triazolo[4,5-d]pyrimidine]	626 nM	1.2 nM	–	–
COC[C@H]1CCCN1c1nc(C(C)(C)C)nc2c1nnn2Cc1ccccc1Cl [Example 44, 5-tert-Butyl-3-(2-chloro-benzyl)-7-((R)-2-methoxymethyl-pyrrolidin-1-yl)-3H-[1,2,3]triazolo[4,5-d]pyrimidine]	> 10000 nM	1 nM	–	–
COC[C@@H]1CCCN1c1nc(C(C)(C)C)nc2c1nnn2Cc1ccccc1Cl [Example 45, 5-tert-Butyl-3-(2-chloro-benzyl)-7-((S)-2-methoxymethyl-pyrrolidin-1-yl)-3H-[1,2,3]triazolo[4,5-d]pyrimidine]	> 10000 nM	52.2 nM	–	–
CC(C)(C)c1nc(N2C[C@@H](F)C[C@H]2C#N)c2nnn(Cc3ccccc3Cl)c2n1 [Example 46, (2S,4S)-1-[5-tert-Butyl-3-(2-chloro-benzyl)-3H-[1,2,3]triazolo[4,5-d]pyrimidin-7-yl]-4-fluoro-pyrrolidine-2-carbonitrile]	2310 nM	4.4 nM	–	–
CC(C)(C)c1nc(N2CCCS2(=O)=O)c2nnn(Cc3ccccc3Cl)c2n1 [Example 47, 5-tert-Butyl-3-(2-chloro-benzyl)-7-(1,1-dioxo-1λ6-isothiazolidin-2-yl)-3H-[1,2,3]triazolo[4,5-d]pyrimidine]	> 10000 nM	20.2 nM	–	–
CC(C)(C)c1nc(N2CCOCC2CO)c2nnn(Cc3ccccc3Cl)c2n1 (stereo not shown) [Example 48, {4-[5-tert-Butyl-3-(2-chloro-benzyl)-3H-[1,2,3]triazolo[4,5-d]pyrimidin-7-yl]-morpholin-3-yl}-methanol]	> 10000 nM	8.3 nM	–	–
CC(C)(C)c1nc(N2CCC[C@@H]2C#N)c2nnn(Cc3ccccc3Cl)c2n1 [Example 49, (R)-1-[5-tert-Butyl-3-(2-chloro-benzyl)-3H-[1,2,3]triazolo[4,5-d]pyrimidin-7-yl]-pyrrolidine-2-carbonitrile]	155 nM	1.1 nM	–	–
CC(C)(C)c1nc(N2CCC[C@H]2C#N)c2nnn(Cc3ccccc3Cl)c2n1 [Example 50, (S)-1-[5-tert-Butyl-3-(2-chloro-benzyl)-3H-[1,2,3]triazolo[4,5-d]pyrimidin-7-yl]-pyrrolidine-2-carbonitrile]	139 nM	1 nM	–	–
CC(C)(C)c1nc(N2CC[C@H](O)[C@@H]2CO)c2nnn(Cc3ccccc3Cl)c2n1 [Example 51, (2S,3S)-1-[5-tert-Butyl-3-(2-chloro-benzyl)-3H-[1,2,3]triazolo[4,5-d]pyrimidin-7-yl]-2-hydroxymethyl-pyrrolidin-3-ol]	> 10000 nM	2.4 nM	–	–
CC(C)(C)c1nc(N2CC[C@@H](O)[C@@H]2CO)c2nnn(Cc3ccccc3Cl)c2n1 [Example 52, (2S,3R)-1-[5-tert-Butyl-3-(2-chloro-benzyl)-3H-[1,2,3]triazolo[4,5-d]pyrimidin-7-yl]-2-hydroxymethyl-pyrrolidin-3-ol]	> 10000 nM	20.8 nM	–	–
CC(C)(C)c1nc(N2CCCC23COC3)c2nnn(Cc3ccccc3Cl)c2n1 [Example 53, 5-tert-Butyl-3-(2-chloro-benzyl)-7-(2-oxa-5-aza-spiro[3.4]oct-5-yl)-3H-[1,2,3]triazolo[4,5-d]pyrimidine]	> 10000 nM	15 nM	–	–
CC1(O)CCN(c2nc(C(C)(C)C)nc3c2nnn3Cc2ccccc2Cl)C1 (stereo not shown) [Example 54, 1-[5-tert-Butyl-3-(2-chloro-benzyl)-3H-[1,2,3]triazolo[4,5-d]pyrimidin-7-yl]-3-methyl-pyrrolidin-3-ol]	> 10000 nM	2.8 nM	–	–
